Reference: PubChem BioAssay AID2305 (GlaxoSmithKline (GSK), 2010)

The molecules below were run on P. falciparum 3D7 growth, pLDH absorbance (assay: P. falciparum 3D7 growth inhibition, dose response, strain 3D7 (AID 2305)).

| Structure (SMILES) | IC50 [nM] |
| --- | --- |
| CCc1cn2c3c(cc(C(=O)N[C@@H](Cc4ccccc4)[C@H](O)CNC(C)(C)CCCC(C)C)cc13)N(C)S(=O)(=O)C2 | 240 |
| CCCNCc1ccc(-c2ccc(CN(Cc3ccc4c(c3)OCO4)C(=O)[C@H]3CCCO3)cc2)nc1 | 810 |
| Cc1cccc2[nH]c(-c3cccc(-c4ccc(NC(=O)Nc5ccc(Cl)c(Cl)c5)cc4)c3)nc12 | 570 |
| COc1ccccc1CCNC(=O)c1cc(Br)cc(N2CCN(c3ccncc3)CC2)c1 | 1270 |
| CCOc1cc(CC)ccc1C1CCN(CCCCNC(=O)c2ccc(NC(=O)c3ccc(Cl)cc3)cc2)CC1 | 740 |
| CC(C)CCN1CCC(Oc2cccc(NC(=O)c3ccc(C(F)(F)F)cc3)c2)CC1 | 630 |
| COc1ccc(C#Cc2ccc(-c3c(C)[nH]c(C)c(Cl)c3=O)cc2)cc1 | 70 |
| O=C(/C=C/c1ccc(Cl)cc1Cl)N1CCC(CCN2CCC(c3c[nH]c4ccccc34)CC2)CC1 | 800 |
| CCOc1cc(C(=O)NC2CCN(Cc3ccccc3)C2)ccc1-c1nc2ccc(Cl)cc2[nH]1 (stereo not drawn) | 1010 |
| Cc1cc(C)cc(N2C(N)=NC(N)=NC2(C)C)c1 | 40 |
| COc1ccc(C(=O)Nc2ccc3nc(N4CCCCC4)cc(C)c3c2)cc1[N+](=O)[O-] | 780 |
| C=CCOc1ccc(C(=O)Nc2nonc2-c2ccc(OC)c(OC)c2)cc1 | 640 |
| O=C(Nc1cccc(-c2cccc(-c3nc4ccc(C(F)(F)F)cc4[nH]3)c2)c1)c1csnn1 | 240 |
| COCCNCC(O)Cn1c2ccc(Cl)cc2c2cc(Cl)ccc21 (stereo not drawn) | 50 |
| Cc1c(-c2cccc(C(C)(C)NCCCN3CCCCC3)c2)cnc(N)c1C | 940 |
| Cc1[nH]c(C)c(-c2ccc(C(=O)c3ccc(Cl)cc3)cc2)c(=O)c1Br | 810 |
| Cn1nc(C(F)(F)F)cc1-c1ccc(C(=O)NC2CCC(CN3CCC(c4c[nH]c5ccccc45)CC3)CC2)s1 (stereo not drawn) | 560 |
| CCCc1cc(Cc2cnc(N)nc2N)cc(CCC)c1OCCCCC(=O)OCC | 50 |
| CN(C)c1cc2c(Nc3ccc4nc(Cc5ccccc5)[nH]c4c3)ncnc2cn1 | 1140 |
| O=C(O)CNCC(O)c1ccccc1 (stereo not drawn) | 180 |
| COc1ccc(CN2CCC(CNC(C)c3cccc4ccccc34)CC2)cc1 (stereo not drawn) | 180 |
| Cc1cccc2[nH]c(-c3ccc(-c4ccc(CNCc5cnn(-c6ccccc6)n5)cc4)s3)nc12 | 720 |
| COc1ccc(CNCCCCCCNCCc2ccc(Cl)cc2)cc1OC | 1390 |
| O=C(/C=C/c1ccc(Cl)c(Cl)c1)NCCCCCCN1CCN(C(=O)Nc2ccc(F)c(Cl)c2)CC1 | 940 |
| O=C(Nc1ccc(-c2ccc(-c3nc4ccccc4[nH]3)s2)cc1)Nc1ccsc1 | 280 |

| Structure (SMILES) | IC50 [nM] |
| --- | --- |
| CC(=O)Nc1ccc(CN2CCC(N(C)c3cc(NC(=O)c4ccc(F)cc4)ccn3)CC2)cc1 | 1120 |
| O=C(Cc1ccc(Nc2nccc(Nc3cccc4[nH]ncc34)n2)cc1)Nc1ccc(C(F)(F)F)cc1 | 890 |
| CSc1ccc(CN2CCC(NC(=O)c3ccc(-c4cccc(Cl)c4)s3)CC2)cc1 | 1290 |
| Cc1cc(N2CCN(C3CCCCC3)CC2)nc2cccc(O)c12 | 700 |
| N#Cc1cncc(-c2nc3c(N4CCCC(N)C4)cccc3n2CCNCc2ccccc2)c1 (stereo not drawn) | 770 |
| CC1(C)N=C(N)N=C(N)N1OCc1cc2ccccc2cc1CON1C(N)=NC(N)=NC1(C)C | 130 |
| CN1CCN(Cc2cc(NC(=O)c3ccc(-c4ccc(Cl)cc4Cl)cc3)ccc2-c2ccccc2)CC1 | 970 |
| CC(c1cccc(Nc2nccc(-c3c(-c4cccc(NC(=O)c5c(F)cccc5F)c4)nn4ccccc34)n2)c1)S(C)(=O)=O (stereo not drawn) | 60 |
| CCC(CC(C)C(=O)O)=C(c1ccccc1)c1ccccc1 (stereo not drawn) | 220 |
| CN(C)CCN(C)Cc1ccc(-c2ccc(NS(=O)(=O)c3cccc4cccnc34)cc2)cc1 | 860 |
| Cc1cc(N(CCCN(C)C)Cc2cc(F)cc(F)c2)nc(Nc2ccc(Cl)cc2)n1 | 540 |
| CCN(CC)CCN(Cc1ccc(-c2ccc(C(F)(F)F)cc2)cc1)C(=O)Cn1c(CCc2cccc(F)c2F)cc(=O)cc1-c1ccccc1 | 780 |
| c1ccc2[nH]c(-c3ccc(-c4ccc(CNCC5CCCO5)cc4)s3)nc2c1 (stereo not drawn) | 870 |
| COc1ccc(CNCc2ccccc2)cc1-c1ccc(S(=O)(=O)NCCN2CCCC2)cc1 | 820 |
| COc1cccc(NC(=O)c2ccc(NCCCN3CCC(C)CC3)c([N+](=O)[O-])c2)c1 | 770 |
| Cc1cc(N2Cc3ccccc3C2)nc(Nc2ccc(S(=O)(=O)N3CCOCC3)cc2)n1 | 1110 |
| Cc1ccc(Cn2ncc(N3CCNCC3)c(Cl)c2=O)cc1NC(=O)Nc1ccc(-c2ccccc2)cc1 | 1120 |
| CCNc1cc(C(=O)N[C@@H](Cc2ccccc2)[C@H](O)CNC2(C)CCCCC2)cc(N2CCCCS2(=O)=O)c1 | 160 |
| Cc1ccccc1C1=CCN(CCCN2c3ccccc3Sc3ccc(Cl)cc32)CC1 | 870 |
| O=C(Nc1cccc(OC2CCN(Cc3ccccc3)CC2)c1)c1ccc([N+](=O)[O-])cc1 | 660 |
| CCc1c(CCNCCCCCCNCCc2ccc([N+](=O)[O-])cc2)ccc(O)c1O | 780 |
| CS(=O)(=O)c1ccc2c(c1)CCN(CCC1CCC(NC(=O)c3cc4cccc(Br)c4[nH]3)CC1)CC2 (stereo not drawn) | 1040 |
| CC(C)CCNC(=O)C1Cc2c([nH]c3ccc(Br)cc23)C2(CCN(Cc3ccccc3)CC2)N1 (stereo not drawn) | 820 |
| COc1ccc(CNC2Cc3ccccc3C2)cc1-c1ccc(S(=O)(=O)NCc2cccnc2)s1 | 1110 |
| FC(F)(F)c1cccc(N2CCC(CN3CCC(c4c[nH]c5ccccc45)CC3)CC2)n1 | 980 |

| Structure (SMILES) | IC50 [nM] |
| --- | --- |
| N=c1ccn(CC(=NO)c2ccc(Cl)c(Cl)c2)cc1 | 940 |
| NC(=NCc1ccccc1)Nc1cccc(Cc2ccccc2)n1 | 860 |
| C[C@@H]1CCC[C@H](C)N1C[C@@H](O)CNS(=O)(=O)c1cccc(C(F)(F)F)c1 | 690 |
| CC(=O)Nc1nc(C(=O)Nc2cccc(-c3cccc(-c4nc5c(C)cccc5[nH]4)c3)c2)cs1 | 110 |
| CCOc1cc2c(cc1S(=O)(=O)c1ccc(COc3ccc(C(F)(F)F)cc3)cc1)CCN(C)CC2 | 1020 |
| COc1ccc(-c2ccc(NC(=O)c3ccc(F)cc3)cc2)cc1CN1CCCN(C)CC1 | 660 |
| FC(F)(F)c1ccc(-c2cncc(-c3ccc(C(F)(F)F)cc3)n2)cc1 | 760 |
| CC(=O)c1c(Cc2ccccc2Cl)c[nH]c1C | 850 |
| COc1ccc(NC(=O)CCNc2ccnc(NCCc3ccc(F)cc3)n2)cc1 | 990 |
| CC(=O)Nc1cccc(Nc2nccc(-c3c(-c4cccc(NC(=O)c5c(F)cccc5F)c4)nn4ncccc34)n2)c1 | 180 |
| CCCCC(CC)CN1C(=O)C(c2ccccc2)(c2ccccc2)N=C1N (stereo not drawn) | 190 |
| COc1ccc2nccc([C@@H](O)CN3CCC(NCc4cc5sccc5nc4C(F)(F)F)CC3)c2c1 | 910 |
| Cc1ccccc1C1CCN(C2CCC(NC(=O)/C=C/c3c(F)ccc(F)c3F)CC2)CC1 (stereo not drawn) | 1260 |
| c1ccc(CN2CCN(c3cc(-c4cncc(-c5ccccc5)c4)nc(-c4ccccc4)n3)CC2)cc1 | 1040 |
| COc1ccc(CNCc2ccsc2)cc1-c1ccc(OC)c(S(=O)(=O)NCCN2CCCC2)c1 | 920 |
| COc1ccc(NC(=O)/C=C/c2ccc(-c3ccccc3)cc2)cc1N1CCN(C)CC1 | 910 |
| c1ccc2[nH]c(Nc3ccc(Nc4nc5ccccc5[nH]4)cc3)nc2c1 | 780 |
| O=C(Nc1ccc2nc(-c3ccc4nc(NC(=O)C5CCCCC5)sc4c3)[nH]c2c1)C1CCCCC1 | 610 |
| Cc1noc(C)c1-c1cccc(CNCc2cccc(-c3cccc(-c4nc5ccccc5[nH]4)c3)c2)c1 | 380 |
| COc1ccc2nc(-c3ccc(C(=O)NCCCN4CCN(c5cc(Cl)ccc5OC)CC4)cc3OC)[nH]c2c1 | 870 |
| N#Cc1ccc2c(c1)CCN(CCC1CCC(NC(=O)/C=C/c3cnc4ccccc4c3)CC1)CC2 (stereo not drawn) | 1210 |
| O=C(O)Cc1ccc(-c2c[nH]c3ncc(-c4cccc5ncccc45)cc23)cc1 | 850 |
| COC(=O)c1ccc(CCCNCC(O)c2cccc(C(F)(F)F)c2)cc1 (stereo not drawn) | 800 |
| COc1cccc(-c2nn(C)c3sc(C(=O)Nc4cccnc4)cc23)c1 | 950 |
| Cc1cccc2[nH]c(-c3cccc(-c4cccc(CN5CCCC5CN)c4)c3)nc12 (stereo not drawn) | 770 |

| Structure (SMILES) | IC50 [nM] |
| --- | --- |
| CC(C)c1ccc(CN(C)CCCCNC(=O)c2ccc(NC(=O)c3ccc(Cl)cc3)cc2)cc1 | 990 |
| COc1cccc(-c2ccc(NC(=O)C3CCCN(Cc4cccc(OC)c4O)C3)cc2)c1 (stereo not drawn) | 850 |
| Cc1ccc(C2CCN(CCCCNC(=O)c3ccc(-c4ccc(C(F)(F)F)cc4)cc3)CC2)c(O)c1 | 130 |
| O=C(Nc1cccc(-c2ccc(-c3nc4ccc(F)cc4[nH]3)cc2)c1)c1ccoc1 | 960 |
| CCn1c(SC)nnc1C1CCCN(CC(=O)Nc2nc3ccc(OC)cc3s2)C1 (stereo not drawn) | 750 |
| O=C(NC1CCCCC1)C(c1cccs1)N(CCc1ccccc1)C(=O)c1ccco1 (stereo not drawn) | 1040 |
| O=C(Cc1ccc(NC(=O)c2ccc(O)c(-c3ccc(Cl)c(Cl)c3)c2)cc1)NCCc1ccc(Cl)c(Cl)c1 | 720 |
| O=C1C(c2ccccc2)=C(Nc2ccc(Cl)cc2)c2ccccc21 | 610 |
| Nc1nc(N)c2c3c(ccc2n1)CCC3 | 930 |
| COc1ccc(F)cc1-c1cccc(CNC2CCN(CC3Cn4c(=O)ccc5ccc(F)c3c54)CC2)c1 (stereo not drawn) | 830 |
| NC(N)=NN=CC(=O)Nc1ccc(Cl)c(Cl)c1 | 740 |
| Cc1cc(NC(=O)CCN2CCN(c3cccc(Cl)c3Cl)CC2)ccc1N1CCN(C(C)C)CC1 | 850 |
| N#Cc1ccc(C=Cc2nccc3c2[nH]c2ccccc23)cc1 | 640 |
| Cc1cc(Cl)ccc1NC(=O)NCCCCCN1CCC(c2c[nH]c3ccccc23)CC1 | 1010 |
| COc1ccc(CN2CCCN(Cc3cccc(C(=O)Nc4ccc(C(C)(C)C)cc4)c3)CC2)cc1 | 890 |
| CS(=O)(=O)c1cccc(-c2cnc3[nH]cc(-c4cccc(CCN)c4)c3c2)c1 | 1560 |
| CN1CCC(NCc2ccc(-c3cccc(S(=O)(=O)NCC4CCCO4)c3)cc2)CC1 (stereo not drawn) | 940 |
| COc1ccc(/C=C/C(=O)Nc2ccc(-c3ccncc3)cc2)cc1CCCN(C)C | 750 |
| CCC(C)(C)c1ccc(OCC(O)CN2CCCCC2)c(C(C)(C)CC)c1 (stereo not drawn) | 1300 |
| COc1ccc(-c2nnc(Sc3ccc(C#N)c([N+](=O)[O-])c3)n2CC(C)C)cc1 | 820 |
| Cc1ccc(-n2c(Sc3ncnc4sccc34)nnc2N2CCCC2)cc1 | 260 |
| Cc1cccc2[nH]c(-c3ccc(-c4ccc(NC(=O)CN5CCN(C)CC5)cc4)cc3)nc12 | 790 |
| Cc1cc(N[C@@H](Cc2ccccc2)C(=O)NCc2cccc(F)c2)nc(NCCc2cccnc2)n1 | 1340 |
